As usually defined, the IC50 is the concentration at which inhibition is half-maximal. A high value points to weaker potency.

The assay has as its target T1, FLT3 (Homo sapiens, UniProt P36888).
T1 sequence (P36888 27-993): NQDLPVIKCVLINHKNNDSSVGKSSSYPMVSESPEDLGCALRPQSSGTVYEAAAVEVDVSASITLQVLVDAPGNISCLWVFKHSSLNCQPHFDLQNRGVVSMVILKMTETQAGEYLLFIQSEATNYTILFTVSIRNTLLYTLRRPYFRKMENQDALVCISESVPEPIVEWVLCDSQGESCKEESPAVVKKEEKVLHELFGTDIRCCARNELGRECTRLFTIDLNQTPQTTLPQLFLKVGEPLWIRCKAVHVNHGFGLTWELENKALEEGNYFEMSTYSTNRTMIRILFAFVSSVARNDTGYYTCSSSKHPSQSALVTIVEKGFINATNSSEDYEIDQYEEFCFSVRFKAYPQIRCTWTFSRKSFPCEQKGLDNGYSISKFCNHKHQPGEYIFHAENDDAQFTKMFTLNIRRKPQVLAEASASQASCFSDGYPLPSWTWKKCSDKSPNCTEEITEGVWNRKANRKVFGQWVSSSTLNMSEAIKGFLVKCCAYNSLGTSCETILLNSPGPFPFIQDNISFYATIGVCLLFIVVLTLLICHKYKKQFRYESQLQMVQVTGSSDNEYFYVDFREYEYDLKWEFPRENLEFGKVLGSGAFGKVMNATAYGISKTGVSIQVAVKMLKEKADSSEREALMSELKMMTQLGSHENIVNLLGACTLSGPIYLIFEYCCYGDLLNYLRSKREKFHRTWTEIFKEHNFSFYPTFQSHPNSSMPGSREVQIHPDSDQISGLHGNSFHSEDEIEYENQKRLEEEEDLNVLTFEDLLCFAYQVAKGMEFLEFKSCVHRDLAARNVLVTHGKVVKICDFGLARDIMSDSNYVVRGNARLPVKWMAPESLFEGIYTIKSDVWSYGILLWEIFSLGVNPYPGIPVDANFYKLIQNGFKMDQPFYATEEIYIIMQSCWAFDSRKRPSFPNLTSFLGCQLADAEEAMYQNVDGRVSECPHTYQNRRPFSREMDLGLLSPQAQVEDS
The experiment in a line: Inhibition of FLT3, 33P-ATP kinase assay with filter-binding detection. Type of assay: biochemical. The settings on record: 33P-ATP 10 uM, 2 hours at room temperature, filter-binding method. As to the method:
Prepare indicated substrate in freshly prepared Base Reaction Buffer (20 mM Hepes (pH 7.5), 10 mM MgCl2, 1 mM EGTA, 0.02% Brij35, 0.02 mg/ml BSA, 0.1 mM Na3VO4, 2 mM DTT, 1% DMSO). Deliver any required cofactors to the substrate solution above. Deliver indicated kinase into the substrate solution and gently mix. The testing compounds in DMSO was added into the kinase reaction mixture by Acoustic technology (Echo550; nanoliter range) and incubated for 20 minutes at room temperature. Deliver 33P-ATP (specific activity […]) into the reaction mixture to initiate the reaction. Incubate kinase reaction for 2 hours at room temperature. Reactions are spotted onto P81 ion exchange paper. Detect kinase activity by filter-binding method.
Inhibition of FLT3 with 4-Quinolone Derivatives
Take `O=c1c2cc(F)cc(Cl)c2sc2c(NCCCNCCO)nc3ccccc3c12` [compound 7226, 8-chloro-10-fluoro-6-(3-(2-hydroxyethylamino)propylamino)-12H-thiochromeno[2,3-c]quinolin-12-one]: the half-inhibitory concentration (IC50) is greater than 1 µM. Next, `O=c1c2cccc(Cl)c2sc2c(NCCCNCCO)nc3ccccc3c12` [compound 7716, 8-chloro-6-(3-(2-hydroxyethylamino)propylamino)-12H-thiochromeno[2,3-c]quinolin-12-one]: 0.501 to 1 µM. `O=c1c2cc(Cl)ccc2sc2c(OCCO)nc3ccccc3c12` [compound 7718, 10-chloro-6-(2-hydroxyethoxy)-12H-thiochromeno[2,3-c]quinolin-12-one] returned an IC50 greater than 1 µM. As for `CN(C)CCNc1nc2ccccc2c2c(=O)c3cc(F)ccc3sc12` [compound 7744, 6-(2-(dimethylamino)ethylamino)-10-fluoro-12H-thiochromeno[2,3-c]quinolin-12-one], the IC50 fell in the range of 0.201 to 0.5 µM. Next, `NCCCNc1nc2ccccc2c2c(=O)c3cccc(F)c3sc12` [compound 7211, 6-(3-aminopropylamino)-8-fluoro-12H-thiochromeno[2,3-c]quinolin-12-one]: less than 0.051 µM; `CCCNc1nc2ccccc2c2c(=O)c3ccc(Cl)cc3sc12` [compound 7725, 9-chloro-6-(propylamino)-12H-thiochromeno[2,3-c]quinolin-12-one]: greater than 1 µM; `CNCCCNc1nc2ccccc2c2c(=O)c3cc(Cl)ccc3sc12` [compound 7721, 10-chloro-6-(3-(methylamino)propylamino)-12H-thiochromeno[2,3-c]quinolin-12-one]: 0.501 to 1 µM. For `COc1ccc2nc(NCCCNCCO)c3sc4ccc(F)cc4c(=O)c3c2c1` [compound 7407, 10-fluoro-6-(3-(2-hydroxyethylamino)propylamino)-2-methoxy-12H-thiochromeno[2,3-c]quinolin-12-one], the half-maximal inhibitory concentration (IC50) is greater than 1 µM. Next, `CCCNc1nc2ccccc2c2c(=O)c3cc(F)ccc3sc12` [compound 7706, 10-fluoro-6-(propylamino)-12H-thiochromeno[2,3-c]quinolin-12-one]: greater than 1 µM. In turn, `CCN1CCN(c2nc3ccccc3c3c(=O)c4cc(F)ccc4sc23)CC1` [compound 7757, 6-(4-ethylpiperazin-1-yl)-10-fluoro-12H-thiochromeno[2,3-c]quinolin-12-one] had a 50% inhibitory concentration (IC50) of 0.201 to 0.5 µM. Next, `O=c1c2cc(F)ccc2sc2c(N3CCNCC3)nc3ccc(F)cc3c12` [compound 7425, 2,10-difluoro-6-(piperazin-1-yl)-12H-thiochromeno[2,3-c]quinolin-12-one]: greater than 1 µM. Next, `CCNc1nc2ccccc2c2c(=O)c3cccc(F)c3sc12` [compound 7241, 6-(ethylamino)-8-fluoro-12H-thiochromeno[2,3-c]quinolin-12-one]: greater than 1 µM; `NCCCNc1nc2ccccc2c2c(=O)c3cccc(Cl)c3sc12` [compound 7715, 6-(3-aminopropylamino)-8-chloro-12H-thiochromeno[2,3-c]quinolin-12-one]: less than 0.051 µM; `O=c1c2cc(F)ccc2sc2c(NCCN3CCOCC3)nc3ccccc3c12` [compound 7756, 10-fluoro-6-((2-morpholinoethyl)amino)-12H-thiochromeno[2,3-c]quinolin-12-one]: greater than 1 µM. For the compound `Nc1nc2ccccc2c2c(=O)c3ccc(Cl)cc3sc12` [compound 7723, 6-Amino-9-chloro-12H-thiochromeno[2,3-c]quinolin-12-one], the IC50 is greater than 1 µM. On to `COCCCNc1nc2ccccc2c2c(=O)c3cc(OC)ccc3sc12` [compound 7743, 10-methoxy-6-(3-methoxypropylamino)-12H-thiochromeno[2,3-c]quinolin-12-one], for which the IC50 was greater than 1 µM. Next, `Nc1nc2ccccc2c2c(=O)c3c(Cl)cccc3sc12` [compound 7724, 6-Amino-11-chloro-12H-thiochromeno[2,3-c]quinolin-12-one]: greater than 1 µM; `O=c1c2cc(Cl)ccc2sc2c(NCCCNCCO)nc3ccccc3c12` [compound 7701, 10-chloro-6-(3-(2-hydroxyethylamino)propylamino)-12H-thiochromeno[2,3-c]quinolin-12-one]: greater than 1 µM; `CNCCCNc1nc2ccccc2c2c(=O)c3cc(F)ccc3sc12` [compound 7731, 10-fluoro-6-(3-(methylamino)propylamino)-12H-thiochromeno[2,3-c]quinolin-12-one]: 0.201 to 0.5 µM. Next, `NCCCNc1nc2ccccc2c2c(=O)c3cc(OC(F)(F)F)ccc3sc12` [compound 7203, 6-(3-aminopropylamino)-10-(trifluoromethoxy)-12H-thiochromeno[2,3-c]quinolin-12-one]: greater than 1 µM.

The record behind these values is patent US11332476B2, “Fms-like tyrosine kinase inhibitors” (3SM BIOTRON INC., priority 2018, dated 2022).
